Numbers after ± are expanded uncertainties.
Settings: 101.33 kPa, Crystal; for molar entropy: Small (less than 1 g) adiabatic calorimetry; for mass density: X-ray diffraction

C[N+](C)(C)C[C@H](O)CC(=O)[O-] [(R)-3-hydroxy-4-(trimethylammonio)butanoate]
Settings	mass density [kg/m3]	molar entropy [J/K/mol]
5 K	–	0.0967 ± 0.025
10 K	–	0.77 ± 0.058
15 K	–	2.46 ± 0.16
20 K	–	5.34 ± 0.33
25 K	–	8.973 ± 0.18
30 K	–	13 ± 0.26
35 K	–	17.28 ± 0.33
40 K	–	21.73 ± 0.39
45 K	–	26.33 ± 0.29
50 K	–	31.04 ± 0.33
60 K	–	40.65 ± 0.4
70 K	–	50.3 ± 0.48
80 K	–	59.86 ± 0.56
90 K	–	69.27 ± 0.66
100 K	–	78.52 ± 0.72
110 K	–	87.63 ± 0.79
120 K	–	96.63 ± 0.85
130 K	–	105.5 ± 0.9
140 K	–	114.3 ± 1
150 K	1256 ± 6	122.9 ± 1
160 K	–	131.4 ± 1.1
170 K	–	139.9 ± 1.2
175 K	1250 ± 6	–
180 K	–	148.2 ± 1.2
190 K	–	156.4 ± 1.3
200 K	1253 ± 6	164.5 ± 1.3
210 K	–	172.5 ± 1.4
220 K	–	180.3 ± 1.5
225 K	1247 ± 6	–
230 K	–	188.1 ± 1.5
240 K	–	195.9 ± 1.6
250 K	1247 ± 6	203.6 ± 1.6
260 K	–	211.2 ± 1.7
270 K	–	218.8 ± 1.7
273.15 K	–	221.2 ± 1.8
275 K	1250 ± 6	–
280 K	–	226.4 ± 1.8
290 K	–	233.9 ± 1.9
298.15 K	–	240.1 ± 1.9
300 K	1245 ± 6	241.5 ± 1.9
310 K	–	249 ± 2
320 K	–	256.5 ± 2
325 K	1236 ± 6	–
330 K	–	264 ± 2.1
340 K	–	271.5 ± 2.1
350 K	1239 ± 6	279 ± 2.2
375 K	1242 ± 6	–
400 K	1236 ± 6	–
425 K	1236 ± 7	–
